Measurements taken from ChEMBL document CHEMBL1130736, “Syntheses of new modified Phe-Pro peptides. Use of proline replacements in potential HIV inhibitors” (Bioorg Med Chem Lett, 1998).
Peptide text beside a SMILES is read from it. * marks the point of attachment. Boc = CC(C)(C)OC(=O)*

Tests used:
MT4 [1] = test: Concentration required to cause 50% death of uninfected MT-4 cells; assay type: functional; conditions: Homo sapiens
MT4 [2] = test: Concentration required to inhibit syncytia formation by 50% in HIV infected HIV-BRU MT-4 cells; assay type: functional, cell-based, Homo sapiens
[3] = Partition coefficient (logP); assay type: physicochemical; conditions: octanol/water
[4] = Homo sapiens, MT4, read-out: IC50

SMILES	logP [3]	CC50 (MT4 [1])	IC50 (MT4 [2]; mt4)	IC50 (MT4 [2]; [4])
CC(C)(C)OC(=O)N[C@@H](Cc1ccccc1)C(=O)N1CCC(O)C1 (stereo not given in full)	3.15	100 µM		50 µM
O=C1CCN(C(=O)[C@H](Cc2ccccc2)NC(=O)c2ccc3ccccc3n2)C1	3.44	> 100 µM		10 µM
O=C1CCN(C(=O)[C@H](Cc2ccccc2)NC(=O)N(c2ccccc2)c2ccccc2)C1	4.86	> 100 µM	Not Active	
CCCCCCCCOC(=O)N[C@@H](Cc1ccccc1)C(=O)N1CCC(=O)C1	5.38	50 µM	Not Active	
CC(C)(C)OC(=O)N[C@@H](Cc1ccccc1)C(=O)N1CCC(=O)C1	3.97	100 µM		10 µM
O=C1CCN(C(=O)[C@H](Cc2ccccc2)NC(=O)OCc2ccccc2)C1	3.97	50 µM		1 µM
CC(C)(C)OC(=O)N[C@@H](Cc1ccccc1)C(=O)N1CCC[C@H]1C(=O)O (Boc-Phe-Pro-OH)	3.96	> 100 µM	Not Active	

Now from value to molecule, other results behind:

logP [3]	SMILES	CC50 (MT4 [1])	IC50 (MT4 [2]; mt4)	IC50 (MT4 [2]; [4])
3.17	O=C1CCN(C(=O)[C@H](Cc2ccccc2)NC(=O)c2ccccc2)C1	50 µM	Not Active	
2.31	O=C1CCN(C(=O)[C@H](Cc2ccccc2)NC(=O)c2cccnc2)C1	> 100 µM		0.1 µM
3.33	CN(C(=O)N[C@@H](Cc1ccccc1)C(=O)N1CCC(=O)C1)c1ccccc1	50 µM	Not Active	
